According to patent US20120190004A1, “METHODS AND COMPOSITIONS FOR THE CRYOPRESERVATION OF DUCKWEED” (Biolex Therapeutics, Inc., priority 2009, published 2012):

Tests used:
Experiment in all cases: Cryopreservation success rate after dormancy induction in sugar-supplemented medium
L. minor = assay type: in vivo, Lemna minor
Sp. polyrrhiza = assay type: in vivo, Spirodela polyrrhiza; conditions: single sugars 90 mg/ml unless the label says 20 mg/ml, six sugar combo 15 mg/ml each
L. sp. Branson = assay type: in vivo
Description: Lemna minor duckweed plants were cultured on Schenk and Hildebrandt media with 20 mg/ml sucrose at an aerial temperature of between 21° C. and 30° C. and light levels ranging from 200 μM·M^−2·sec^−1 to 450 μM·M^−2·sec^−1 for 1 day up to 1 year. Three frond colonies (each frond colony comprised one or more daughter fronds attached to the mother frond) were aseptically transferred into a 2.0-mL cryovial containing a 900 μL solution of Schenk and Hildebrandt media, […] step. The frond colonies were incubated in this sugar solution for 21-30 days. Each 24-hour photoperiod was comprised of fluctuations in temperature and light levels. Specifically, the daytime hours consisted of culturing the duckweed frond colony at an aerial temperature of 10° C. with a light level of about 25 μM·M^−2·sec^−1 to about 50 μM·M^−2·sec^−1 for a duration of 3 hours, followed by an aerial temperature of 15° C. at a light level of about 25 μM·M^−2·sec^−1 to about 75 μM·M^−2·sec^−1 for a duration of 6 hours, and an aerial temperature of 10° C. with a light level of about 25 μM^−2·sec^−1 to about 50 μM·M^−2·sec^−1 for a duration of 3 hours. During the nighttime hours of the 24-hour photoperiod, the duckweed frond colonies were cultured at an aerial temperature of 4° C. in the absence of light for a duration of 12 hours.
The duckweed frond colonies were dehydrated in a laminar flow hood in 900 μL of a cryoprotective solution, comprising 1.92 M DMSO, […], 3.26 M glycerol, and 0.4 M sucrose at pH 5.8. The cryovials were incubated in this solution at 4° C. for 30 minutes to 2 hours in the absence of light. Following the incubation, the cryoprotective solution was removed and replaced with 900 μL of fresh cryoprotective solution.
The duckweed frond colonies were frozen in a slow rate freezer according to the following freezing protocol. The cryovials containing the duckweed frond colonies were held at 4° C. and the temperature was lowered to −4° C. at 1° C. per minute, to −40° C. at 25° C. per minute, and then raised to −12° C. at 10° C. per minute. The temperature was again lowered to −40° C. at 1° C. per minute, to −90° C. at 10° C. per minute, and then lowered to −150° C. at 10° C. per minute. Once frozen, the vials containing the frond colonies were transferred to the vapor phase of liquid nitrogen for storage.
After up to 17 months in storage, the frozen duckweed frond colonies were thawed and recovered as follows. The vials containing the frozen duckweed frond colonies were transferred from the liquid nitrogen storage tank to a laminar flow hood and were thawed at room temperature for approximately ten minutes. The cryoprotective solution was removed and replaced with 900 μL of Schenk and Hildebrandt medium, supplemented with 1.2 M sucrose, followed by a ten minute incubation at room temperature. The 1.2 M sucrose was subsequently diluted by a series of five dilutions whereby 450 μL of the 1.2 M sucrose solution was removed and replaced with 450 μL of Schenk and Hildebrandt medium supplemented with 20 mg/ml sucrose. Following the serial dilutions, the frond colonies were transferred to a petri dish with Schenk and Hildebrandt medium, supplemented with 10 mg/ml sucrose and 1% (weight/volume) agar. The duckweed frond colonies were cultured at an aerial temperature of between 21° C. and 30° C. with light levels ranging from about 20 μM·M^−2·sec^−1 to about 100 μM·M^−2·sec^−1 for 7-14 days prior to calculating the success rate of the cryopreservation procedure.
The cryopreservation success rate was calculated by the total number of visible daughter fronds (or daughter fronds with viable tissue) to survive the freezing process and successfully reproduce new daughter fronds as a percentage of the total number of visible daughter fronds that were frozen. Viability of tissue or of daughter fronds was assessed by the presence of green tissue and the ability of these fronds or frond tissues to reproduce and generate new daughter fronds. […]

[1] = second set of experiments, single sugars 90 mg/ml unless the label says 20 mg/ml, six sugar combo 15 mg/ml each, listed as 20 mg/ml Sucrose
[2] = sugars at two concentrations: 90 mg/ml (1X) and 270 mg/ml (3X), listed as Sucrose 1X
[3] = sugars at two concentrations: 90 mg/ml (1X) and 270 mg/ml (3X), listed as Sucrose 3X
[4] = various concentrations of six sugar combination: total sugar 90 (1X), 216 (2.4X), 342 mg/ml (3.8X), or 20 mg/ml sucrose

For `OC[C@H]1O[C@@](CO)(O[C@H]2O[C@H](CO)[C@@H](O)[C@H](O)[C@H]2O)[C@@H](O)[C@@H]1O` [Sucrose, sucrose], the Cryopreservation success rate (L. minor; dormancy induction 7-Day, 4° C. with no light) was 0% (0/28), the Cryopreservation success rate (L. minor; dormancy induction 7-Day, 9-10° C. with no light) was 14.82% (4/27) and the Cryopreservation success rate (L. minor; dormancy induction 7-Day, fluctuating temperature and light) was 33.3% (9/27). The Cryopreservation success rate (L. minor; dormancy induction 7-Day, fluctuating temperature with no light) was 65.39% (17/26), the Cryopreservation success rate (L. minor; dormancy induction 14-Day, 4° C. with no light) was 0% (0/22) and the Cryopreservation success rate (L. minor; dormancy induction 14-Day, 9-10° C. with no light) was 73.08% (19/26). For the same molecule, the Cryopreservation success rate (L. minor; dormancy induction 14-Day, fluctuating temperature and light) was 96% (24/25), the Cryopreservation success rate (L. minor; dormancy induction 14-Day, fluctuating temperature with no light) was 100% (24/24) and the Cryopreservation success rate (L. minor; dormancy induction 21-Day, 4° C. with no light) was 4.17% (1/24). For the same molecule, the Cryopreservation success rate (L. minor; dormancy induction 21-Day, 9-10° C. with no light) was 91.67% (22/24), the Cryopreservation success rate (L. minor; dormancy induction 21-Day, fluctuating temperature with no light) was 86.96% (20/23) and the Cryopreservation success rate (L. minor; dormancy induction 28-Day, 4° C. with no light) was 0% (0/20). For the same molecule, the Cryopreservation success rate (L. minor; dormancy induction 28-Day, 9-10° C. with no light) was 97.37% (37/38), the Cryopreservation success rate (L. minor; dormancy induction 28-Day, fluctuating temperature and light) was 94.29% (33/35) and the Cryopreservation success rate (L. minor; dormancy induction 28-Day, fluctuating temperature with no light) was 100% (30/30). The Cryopreservation success rate (L. minor; first set of experiments, single sugars 90 mg/ml unless the label says 20 mg/ml, six sugar combo 15 mg/ml each, listed as 20 mg/ml Sucrose) was 42.3% (11/26), the Cryopreservation success rate (L. minor; [1]) was 43.8% (7/16) and the Cryopreservation success rate (L. minor; [2]) was 88.9% (16/18). For the same molecule, the Cryopreservation success rate (L. minor; [3]) was 0% (0/11), the Cryopreservation success rate (L. minor; [4]) was 92.9% (26/28) and the Cryopreservation success rate (Sp. polyrrhiza; first set of experiments) was 0% (0/10). For the same molecule, the Cryopreservation success rate (Sp. polyrrhiza; first set of experiments, listed as 20 mg/ml Sucrose) was 0% (0/14), the Cryopreservation success rate (Sp. polyrrhiza; second set of experiments) was 0% (0/12) and the Cryopreservation success rate (L. sp. Branson; first set of experiments, single sugars 90 mg/ml unless the label says 20 mg/ml, six sugar combo 15 mg/ml each, in Schenk and Hildebrandt media during dormancy induction) was 100% (23/23). The Cryopreservation success rate (L. sp. Branson; first set of experiments, single sugars 90 mg/ml unless the label says 20 mg/ml, six sugar combo 15 mg/ml each, in Schenk and Hildebrandt media during dormancy induction, listed as 20 mg/ml Sucrose) was 96% (24/25), the Cryopreservation success rate (L. sp. Branson; second set of experiments, single sugars 90 mg/ml unless the label says 20 mg/ml, six sugar combo 15 mg/ml each) was 87.5% (14/16) and the Cryopreservation success rate (L. sp. Branson; [1]) was 88.2% (15/17). The Cryopreservation success rate (L. sp. Branson; [2]) was 100% (19/19), the Cryopreservation success rate (L. sp. Branson; [3]) was 0% (0/14) and the Cryopreservation success rate (L. sp. Branson; [4]) was 100% (24/24).
